# Results from ChEMBL document CHEMBL3044835, “Pachyelasides A-D, novel molluscicidal triterpene saponins from Pachyelasma tessmannii” (2005).
# Tested on: Biomphalaria glabrata
# Test: Molluscicidal activity against Biomphalaria glabrata assessed as heartbeat measured after 24 hr
# Assay type: functional
# Conditions: read-out: LD50 (the source's name)
row,SMILES,LC50
1,CC1(C)C[C@H]2C3=CC[C@@H]4[C@@]5(C)CC[C@H](O[C@@H]6O[C@H](CO)[C@@H](O[C@@H]7OC[C@@H](O)[C@H](O)[C@H]7O)[C@H](O)[C@H]6O[C@@H]6OC[C@@H](O)[C@H](O[C@@H]7O[C@H](CO)[C@@H](O)[C@H](O)[C@H]7O[C@@H]7O[C@H](CO)[C@@H](O)[C@H](O)[C@H]7O)[C@H]6O)C(C)(C)[C@@H]5CC[C@@]4(C)[C@]3(C)CC[C@@]2(C(=O)O)C[C@@H]1OC(=O)/C=C/c1ccccc1 [PACHYELASIDE C],2 µg/mL
2,CC1(C)C[C@H]2C3=CC[C@@H]4[C@@]5(C)CC[C@H](O[C@@H]6O[C@H](CO)[C@@H](O)[C@H](O)[C@H]6O[C@@H]6O[C@H](CO)[C@@H](O)[C@H](O[C@@H]7O[C@H](CO)[C@@H](O)[C@H](O)[C@H]7O[C@@H]7O[C@H](CO)[C@@H](O)[C@H](O)[C@H]7O)[C@H]6O)C(C)(C)[C@@H]5CC[C@@]4(C)[C@]3(C)CC[C@@]2(C(=O)O)C[C@@H]1OC(=O)/C=C/c1ccccc1 [PACHYELASIDE-A],2 µg/mL
3,CC1(C)CC[C@]2(C(=O)O)CC[C@]3(C)C(=CC[C@@H]4[C@@]5(C)CC[C@H](O[C@@H]6O[C@H](CO)[C@@H](O)[C@H](O)[C@H]6O[C@@H]6O[C@H](CO)[C@@H](O)[C@H](O[C@@H]7O[C@H](CO)[C@@H](O)[C@H](O)[C@H]7O[C@@H]7O[C@H](CO)[C@@H](O)[C@H](O)[C@H]7O)[C@H]6O)C(C)(C)[C@@H]5CC[C@]43C)[C@@H]2C1 [PACHYELASIDE B],2 µg/mL
4,CC1(C)C[C@H]2C3=CC[C@@H]4[C@@]5(C)CC[C@H](O[C@@H]6O[C@H](CO)[C@@H](O[C@@H]7OC[C@@H](O)[C@H](O)[C@H]7O)[C@H](O)[C@H]6O[C@@H]6O[C@H](CO)[C@@H](O)[C@H](O[C@@H]7O[C@H](CO)[C@@H](O)[C@H](O)[C@H]7O[C@@H]7O[C@H](CO)[C@@H](O)[C@H](O)[C@H]7O)[C@H]6O)C(C)(C)[C@@H]5CC[C@@]4(C)[C@]3(C)CC[C@@]2(C(=O)O)C[C@@H]1OC(=O)/C=C/c1ccccc1 [PACHYELASIDE D],8 µg/mL
